Laboratory results from patent publication US8193213B2, “Spermicidal and/or antifungal composition and methods of using the same” (priority 2003, dated 2012).
Marks after values point to notes of the source that are not given here. Blank lines part the entries; values can stand above or below the molecule they belong to.

Key:
adult male Swiss mice = test: Antispermatogenic screen: single gavage dose to male mice, testes weight and Spermatogenic Index at 72 h; type: in vivo; conditions: day 3 (72 h)
Procedure: The compounds of the invention were tested in mice for their effects on spermatogenesis three days after a single oral dose by the procedure described in Cook et al (1995) below. Compounds active in this test have been shown also to be anti-fertility compounds.
Compounds were screened for antispermatogenic activity by dosing male mice on day 1 with a gavage dose of control vehicle, positive control (compound 1) or compound of the invention. At 72 h after dosing, animals were killed and the testes were excised, trimmed of fat, and weighed. One testis was examined histologically and rated for spermatogenic potential using the Spermatogenic Index (J. M. Whitsett, P. F. Noden, J. Cherry and A. D. Lawton, J. Reprod. Fertil., 72, 277 (1984), which is a semiquantitative estimate of the sperm producing ability of the testes The index is based on histological appearance of the spermatogenic cells in the seminiferous tubules. A scale of 1 to 6 is used with 5 to 6 being the normal status. A second assessment was based on the weight of the testes.
Tables 1 and 2 show pertinent biological results in terms of the change in testes weight (TW) and spermatogenic index (SI) relative to a control containing only the administration vehicle, but no indenopyridine. In Tables 1 and 2, R^3 and R^4 refer to structures Ib, where R^3 is in the para position; R^1 is ethyl; R^2 is methyl; and R^5 is hydrogen.

mice = test: Lethargy and sedation in mice; type: in vivo
Excerpt: Lethargy and sedation are obviously undesirable side effects in contraceptive agents. In contrast to the lethargy and sedation observed with compound 1, the compounds of the present invention produce minimal lethargy.

testes = test: Antispermatogenic activity after a single oral dose to rats; type: in vivo; conditions: single oral dose of 30 mg/kg
Excerpt: Spermatids became pycnotic, occasionally forming multinucleated associations. Sertoli cells appear to be cytologically normal. It appears that compound 1 targets spermatids or the Sertoli cell associated with these spermatids because histologic changes are observed in these spermatids first.

spermatogenesis = conditions: oral administration to animals; cited from earlier work
[1] = Table 2, 30 mg/kg single gavage dose, vehicle 1% Tween20 in water
[2] = racemic compounds, 30 mg/kg single gavage dose, vehicle 90% water, 7% Tween20, 3% ethanol
[3] = racemic compounds, 1 mg/kg single gavage dose, vehicle 90% water, 7% Tween20, 3% ethanol
[4] = racemic compounds, 3 mg/kg single gavage dose, vehicle 90% water, 7% Tween20, 3% ethanol
[5] = racemic compounds, 10 mg/kg single gavage dose, vehicle 90% water, 7% Tween20, 3% ethanol

SMILES: CCN1CC[C@@H]2[C@@H](c3ccc(C)cc3)c3cc(C)ccc3[C@@H]2C1 (racemic) [Compound 1, (4aRS,5SR,9bRS)-2-ethyl-2,3,4,4a,5,9b-hexahydro-7-methyl-5-(4-methylphenyl)-1H-indeno[1,2-c]pyridine]
SI change (%) (Spermatogenic Index, % change from vehicle control) (adult male Swiss mice; [1]): −61%*
TW change (%) (testes weight, % change from vehicle control) (adult male Swiss mice; [1]): −24%*
SI change (%) (Spermatogenic Index, % change from vehicle control) (adult male Swiss mice; [2]): −55%*
TW change (%) (testes weight, % change from vehicle control) (adult male Swiss mice; [2]): 19%*
Lethargy (mice; 30 mg/kg given subcutaneously): extreme lethargy
Lethargy and sedation (mice; oral dose of 30 mg/kg): some lethargy and sedation
Testis histology (testes): Degenerative changes in the seminiferous tubules
Effect on weights of the testes (testes; within 24 h): drastically reducing the weights of the testes
Inhibition of spermatogenesis (spermatogenesis): reversible inhibition of spermatogenesis

melting point: > 190 °C (dec.)
SMILES: CCN1CC[C@@H]2[C@@H](c3ccc(C(=O)OC)cc3)c3cc(C)c(I)cc3[C@@H]2C1.Cl (racemic) [Compound 18, (4aRS,5SR,9bRS)-2-Ethyl-2,3,4,4a,5,9b-hexahydro-8-iodo-7-methyl-5-(4-carbomethoxyphenyl)-1H-indeno[1,2-c]pyridine Hydrochloride]
SI change (%) (Spermatogenic Index, % change from vehicle control) (adult male Swiss mice; [3]): −57%*
TW change (%) (testes weight, % change from vehicle control) (adult male Swiss mice; [3]): −16%
SI change (%) (Spermatogenic Index, % change from vehicle control) (adult male Swiss mice; [4]): −69%*
TW change (%) (testes weight, % change from vehicle control) (adult male Swiss mice; [4]): −27%*
SI change (%) (Spermatogenic Index, % change from vehicle control) (adult male Swiss mice; [5]): −74%*
TW change (%) (testes weight, % change from vehicle control) (adult male Swiss mice; [5]): −36%*
